pEC50: −log10 of the molar value. *1 amine or outer side, *2 acyl side, *3 side chain or, on linkers, in order; H or OH if unused. Where a SMILES comes first, the peptide text is derived from it. Bridges are numbered along the chain shown (N, C = ends). Roman numbers before positions name the chains, in order. [ ]: non-standard residue; d: D form. hNle(7-SH) = O=C([C@H](CCCCCS[*:3])N[*:1])[*:2]; Gly((CH2)5SH) = N[C@@H](CCCCCS)C(=O)O; Pip = O=C(O)[C@@H]1CCCCN1
Assays:
mouse HDAC6 = molecular target: T1, mouse HDAC6 (Mus musculus, UniProt Q9Z2V5); test: In vitro HDAC inhibition activity, [3H]-acetylated histone substrate, HDAC6; assay type: biochemical
T1 construct: HA; made in house; host or cells: 293T cells (transient transfection, anti-HA immunoprecipitation, HA peptide elution)
T1 sequence (Q9Z2V5 1-1149): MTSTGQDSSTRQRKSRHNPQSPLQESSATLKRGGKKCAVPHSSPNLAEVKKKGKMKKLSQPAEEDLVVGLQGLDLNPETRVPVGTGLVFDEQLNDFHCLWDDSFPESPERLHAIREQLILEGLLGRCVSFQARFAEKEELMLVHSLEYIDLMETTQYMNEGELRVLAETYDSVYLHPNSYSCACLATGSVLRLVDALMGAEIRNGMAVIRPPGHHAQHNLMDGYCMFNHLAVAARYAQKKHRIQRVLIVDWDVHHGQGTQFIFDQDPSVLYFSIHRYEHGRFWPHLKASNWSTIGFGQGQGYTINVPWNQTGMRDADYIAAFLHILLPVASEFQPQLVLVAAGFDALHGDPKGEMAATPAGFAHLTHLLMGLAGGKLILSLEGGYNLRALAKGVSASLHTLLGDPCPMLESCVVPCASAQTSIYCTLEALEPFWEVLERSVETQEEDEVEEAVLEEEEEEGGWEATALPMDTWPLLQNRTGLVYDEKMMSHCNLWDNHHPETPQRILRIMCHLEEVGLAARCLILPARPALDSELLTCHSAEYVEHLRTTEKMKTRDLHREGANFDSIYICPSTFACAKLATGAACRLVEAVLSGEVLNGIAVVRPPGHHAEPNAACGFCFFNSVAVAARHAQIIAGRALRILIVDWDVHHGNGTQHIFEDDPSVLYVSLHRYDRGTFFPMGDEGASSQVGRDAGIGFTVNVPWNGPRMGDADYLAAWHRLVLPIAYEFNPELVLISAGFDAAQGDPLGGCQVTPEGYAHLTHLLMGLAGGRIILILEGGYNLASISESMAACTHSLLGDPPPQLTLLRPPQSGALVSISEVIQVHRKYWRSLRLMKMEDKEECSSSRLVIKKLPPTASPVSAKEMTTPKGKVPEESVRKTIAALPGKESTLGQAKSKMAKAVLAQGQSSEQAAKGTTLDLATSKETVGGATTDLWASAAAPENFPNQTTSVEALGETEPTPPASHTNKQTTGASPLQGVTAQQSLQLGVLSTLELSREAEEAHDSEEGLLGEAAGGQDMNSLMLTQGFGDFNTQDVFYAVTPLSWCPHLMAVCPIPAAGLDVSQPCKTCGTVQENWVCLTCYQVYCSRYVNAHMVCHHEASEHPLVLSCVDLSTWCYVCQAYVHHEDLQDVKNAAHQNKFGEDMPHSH
Procedure: (§1) To measure HDAC inhibition activity, an HDAC solution was prepared as described below. 1×10^7 of 293T cells were plated on to a 100-mm dish and, after 24 hours, transfected with vectors (1 μg) expressing human HDAC1 and HDAC4 or mouse HDAC6, using LipofectAmine 2000 reagent (Life Technologies, Inc. Gaithersburg, Md.). […] The vectors were introduced for five hours in OPTI-MEM. The medium was then replaced with Dulbecco's modified Eagle's medium (DMEM), and incubated for 19 hours. The cells were washed with PBS, suspended in lysis buffer (50 mM Tris-HCl (pH7.5), 120 mM NaCl, 5 mM EDTA, and 0.5% Nonidet P-40), and sonicated. The supernatant was collected by centrifugation and nonspecific protein was removed using Protein A/G plus agarose beads (Santa Cruz Biotechnologies, Inc.). Anti-FLAG M2 antibodies (Sigma-Aldrich, Inc.) were added to the supernatant of cells expressing HDAC1 or HDAC4. Anti-HA antibodies (clone 3F10, Roche Molecular Biochemicals) were added to the supernatant of cells expressing HDAC6. Reaction in the respective mixtures was carried out at 4° C. for one hour. The resulting reaction mixtures were independently mixed with agarose beads and further reacted at 4° C. for one hour. The agarose beads were washed three times with lysis buffer and then washed once with HD buffer (20 mM Tris-HCl (pH8.0), 150 mM NaCl, 10% glycerol, and a complete protease inhibitor cocktail (Boehringer Mannheim, Germany)). […] The HDAC reaction solution was used for determining HDAC inhibition activity as shown below.
(§2) In vitro HDAC inhibition activity was evaluated as follows: A test compound was dissolved in DMSO and adjusted to 10 mM. This was used as an inhibitor stock solution. […] These reactions were stopped by adding 10 μl HCl. The [^3H] acetic acid excised by the enzyme reaction was extracted with ethyl acetate and subjected to radioactive dose measurement. As a negative control, the same procedure was carried out in which no inhibitor was added to the reaction system. The inhibition activity was expressed as a 50% inhibition concentration (“IC50 (nM)”) of the HDAC activity in the negative control (Tables 1 to 4).

human HDAC4 = molecular target: T2, human HDAC4 (Homo sapiens, UniProt P56524); test: In vitro HDAC inhibition activity, [3H]-acetylated histone substrate, HDAC4; assay type: biochemical
T2 construct: FLAG; made in house; host or cells: 293T cells (transient transfection, anti-FLAG immunoprecipitation, FLAG peptide elution)
T2 sequence (O15379 whole entry partner): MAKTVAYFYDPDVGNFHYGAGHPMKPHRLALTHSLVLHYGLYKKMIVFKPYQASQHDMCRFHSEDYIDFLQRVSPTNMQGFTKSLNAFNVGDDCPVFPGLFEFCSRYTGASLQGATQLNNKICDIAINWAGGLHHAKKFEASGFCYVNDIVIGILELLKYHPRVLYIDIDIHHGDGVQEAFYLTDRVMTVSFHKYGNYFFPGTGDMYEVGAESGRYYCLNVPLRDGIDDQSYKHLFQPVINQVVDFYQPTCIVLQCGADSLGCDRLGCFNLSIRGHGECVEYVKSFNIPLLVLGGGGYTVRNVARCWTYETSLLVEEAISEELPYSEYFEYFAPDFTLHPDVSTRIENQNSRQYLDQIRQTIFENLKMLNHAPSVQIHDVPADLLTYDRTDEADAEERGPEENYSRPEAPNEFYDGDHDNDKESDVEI
T2 sequence (P56524 whole entry): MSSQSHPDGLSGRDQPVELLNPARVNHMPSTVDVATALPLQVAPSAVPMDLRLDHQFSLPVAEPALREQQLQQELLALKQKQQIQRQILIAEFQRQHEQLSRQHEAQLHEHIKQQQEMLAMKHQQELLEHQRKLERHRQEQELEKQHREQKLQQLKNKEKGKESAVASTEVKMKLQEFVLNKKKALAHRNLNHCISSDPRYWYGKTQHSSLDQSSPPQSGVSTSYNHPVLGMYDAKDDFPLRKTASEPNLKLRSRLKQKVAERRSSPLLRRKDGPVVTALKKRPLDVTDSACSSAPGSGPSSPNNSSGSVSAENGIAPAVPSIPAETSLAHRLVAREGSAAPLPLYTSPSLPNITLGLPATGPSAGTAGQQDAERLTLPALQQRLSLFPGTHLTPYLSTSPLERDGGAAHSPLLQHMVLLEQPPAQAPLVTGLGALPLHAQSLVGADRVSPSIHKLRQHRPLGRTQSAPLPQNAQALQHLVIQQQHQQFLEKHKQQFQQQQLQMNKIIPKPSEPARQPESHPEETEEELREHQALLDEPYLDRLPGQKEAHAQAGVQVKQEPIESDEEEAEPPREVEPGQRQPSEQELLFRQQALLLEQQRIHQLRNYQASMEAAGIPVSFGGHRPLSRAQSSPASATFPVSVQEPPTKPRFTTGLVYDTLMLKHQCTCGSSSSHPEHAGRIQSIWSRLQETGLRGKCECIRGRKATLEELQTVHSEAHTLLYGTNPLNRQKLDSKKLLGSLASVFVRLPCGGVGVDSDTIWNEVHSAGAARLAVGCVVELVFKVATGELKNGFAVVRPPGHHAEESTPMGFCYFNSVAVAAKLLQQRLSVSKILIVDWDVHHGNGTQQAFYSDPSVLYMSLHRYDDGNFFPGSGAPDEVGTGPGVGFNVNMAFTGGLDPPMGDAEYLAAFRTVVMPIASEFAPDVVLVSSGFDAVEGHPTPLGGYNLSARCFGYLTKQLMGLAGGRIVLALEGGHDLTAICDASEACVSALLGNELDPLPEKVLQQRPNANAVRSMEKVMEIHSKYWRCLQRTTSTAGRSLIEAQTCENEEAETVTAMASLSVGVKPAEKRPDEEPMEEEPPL
Procedure: as §1, §2

[1] = system: human wild-type p21 promoter; test: p21 promoter-inducing activity (luciferase) in MFLL-9 cells; assay type: cell-based
Procedure: The HDAC inhibition activity in vivo was measured using p21 promoter-inducing activity as an index, as shown below. The MFLL-9 cells employed for the experiments stably maintained fusion genes of human wild-type p21 promoter and luciferase (Dr. B. Vogelstaein). Using phenol red-free DMEM medium comprising 10% FBS, cultivation was carried out in a steam-saturated incubator at 37° C. with 5% carbon dioxide. The MFLL-9 cells were plated at a density of 85,000 cells/well on a 96-well microtiter plate, each in 99 μl of the above-mentioned medium. These were then cultivated for six hours. One μl of test compound solution was added to each well, which was then cultured for another 18 hours.
The intensity of luminescence caused by the product of the enzyme reaction for intracellular luciferase expression was measured using Luc Lite (Packard BioScience Company). A group in which test compounds were not added was used as a negative control group. The values measured for this group were used as a standard. The activities for each concentration of added test compound were expressed relative to the above-mentioned standard value, 1.

human HDAC1 = molecular target: T3, human HDAC1 (Homo sapiens, UniProt Q13547); test: In vitro HDAC inhibition activity, [3H]-acetylated histone substrate, HDAC1; assay type: biochemical
T3 construct: FLAG; made in house; host or cells: 293T cells (transient transfection, anti-FLAG immunoprecipitation, FLAG peptide elution)
T3 sequence (Q13547 whole entry): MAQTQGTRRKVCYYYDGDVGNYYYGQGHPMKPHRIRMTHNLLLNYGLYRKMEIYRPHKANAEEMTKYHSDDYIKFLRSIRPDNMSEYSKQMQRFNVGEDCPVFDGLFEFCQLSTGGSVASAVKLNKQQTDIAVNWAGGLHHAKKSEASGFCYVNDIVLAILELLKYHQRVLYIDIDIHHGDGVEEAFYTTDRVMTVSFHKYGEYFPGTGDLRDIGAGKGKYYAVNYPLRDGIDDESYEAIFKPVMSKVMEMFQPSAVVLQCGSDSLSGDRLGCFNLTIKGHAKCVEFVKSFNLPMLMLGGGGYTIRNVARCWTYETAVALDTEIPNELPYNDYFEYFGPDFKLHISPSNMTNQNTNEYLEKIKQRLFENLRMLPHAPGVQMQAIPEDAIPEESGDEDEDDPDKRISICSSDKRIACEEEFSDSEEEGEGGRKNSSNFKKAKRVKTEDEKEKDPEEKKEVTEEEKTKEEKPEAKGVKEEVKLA
Procedure: as §1, §2

[2] = Table 3, hybrid with DTT (/DTT)
[3] = Table 1, X = H (coexisting with DTT)
[4] = Table 1, X = H (coexisting with DTT), 50% of maximum active value for TSA

Row | IC50 (mouse HDAC6; [3]) [nM] | IC50 (human HDAC4; [3]) [nM] | pEC50 [1, 4] | IC50 (human HDAC1; [3]) [nM] | SMILES | further results
1 |  |  |  |  | CC[C@H](C)[C@@H]1NC(=O)[C@@H](Cc2ccc(OC)cc2)NC(=O)[C@H](CCCCCSSCCO)NC(=O)[C@H]2CCCN2C1=O [SCOP 404, cyclo(-L-Am7(SMEt)-D-Tyr(Me)-L-Ile-D-Pro-)] | IC50 (mouse HDAC6; [2]): 15400 nM; IC50 (mouse HDAC6; Table 3, hybrid, without DTT): 201000 nM; IC50 (human HDAC4; [2]): 13 nM; IC50 (human HDAC4; Table 3, hybrid, without DTT): 355 nM; pEC50 [1, 2]: 6.12; pEC50 ([1]; Table 3, hybrid, without DTT): 5.87; IC50 (human HDAC1; [2]): 2.44 nM; IC50 (human HDAC1; Table 3, hybrid, without DTT): 217 nM
2 | 44300 | 5.22 | 6.22 | 2.37 | CC[C@H](C)[C@@H]1NC(=O)[C@@H](Cc2ccc(OC)cc2)NC(=O)[C@H](CCCCCS)NC(=O)[C@@H]2CCCCN2C1=O [SCOP 149] (cyclo([Gly((CH2)5SH)][dY](Me)I[Pip])) | 
3 | 28500 | 7340 | < 4.00 | 932 | CC[C@H](C)[C@@H]1NC(=O)[C@@H](Cc2ccc(OC)cc2)NC(=O)[C@H](CCCCS)NC(=O)[C@H]2CCCN2C1=O [SCOP 151] | 
4 | 2470 | 99.2 | 4.50 | 38.1 | CC[C@H](C)[C@@H]1NC(=O)[C@@H](Cc2ccc(OC)cc2)NC(=O)[C@H](CCCCCCCS)NC(=O)[C@H]2CCCN2C1=O [SCOP 154] | 
5 |  |  |  |  | CC[C@H](C)[C@@H]1NC(=O)[C@@H](Cc2ccc(OC)cc2)NC(=O)[C@H](CCCCCSSCCCCC[C@@H]2NC(=O)[C@@H]3CCCCN3C(=O)[C@H]([C@@H](C)CC)NC(=O)[C@@H](Cc3ccc(OC)cc3)NC2=O)NC(=O)[C@@H]2CCCCN2C1=O [SCOP 298, cyclo(-L-Am7(-)-D-Tyr(Me)-L-Ile-L-Pip-] (I: cyclo([hNle(7-SH)][dY](Me)I[Pip]) / II: cyclo([hNle(7-SH)][dY](Me)I[Pip]); disulfide I:1-II:1) | IC50 (mouse HDAC6; Table 2, homodimer): 418000 nM; IC50 (human HDAC4; Table 2, homodimer): 33.7 nM; pEC50 ([1]; Table 2, homodimer): 5.24; IC50 (human HDAC1; Table 2, homodimer): 114 nM
6 |  |  |  |  | CC[C@H](C)[C@@H]1NC(=O)[C@@H](Cc2ccc(OC)cc2)NC(=O)[C@H](CCCCCSSCCCCC[C@@H]2NC(=O)[C@@H]3CCCN3C(=O)[C@H]([C@@H](C)CC)NC(=O)[C@@H](Cc3ccc(OC)cc3)NC2=O)NC(=O)[C@@H]2CCCN2C1=O [SCOP 296, cyclo(-L-Am7(-)-D-Tyr(Me)-L-Ile-L-Pro-)] (I: cyclo([hNle(7-SH)][dY](Me)IP) / II: cyclo([hNle(7-SH)][dY](Me)IP); disulfide I:1-II:1) | IC50 (mouse HDAC6; Table 2, homodimer): > 500000 nM; IC50 (human HDAC4; Table 2, homodimer): 222 nM; pEC50 ([1]; Table 2, homodimer): 5.11; IC50 (human HDAC1; Table 2, homodimer): 763 nM
7 | 8050 | 91 | 5.01 | 9.13 | CC[C@H](C)[C@@H]1NC(=O)[C@@H](Cc2ccc(OC)cc2)NC(=O)[C@H](CCCCCCS)NC(=O)[C@H]2CCCN2C1=O [SCOP 153] | 
